The values below come from patent publication US9492413B2 (priority 2008, dated 2016).

Read-outs that look alike come from different tables or passages of the source.

Assay [1] deals with human H5N1 isolate A/Thailand/KAN-1/2004. The format is cell-based, influenza A virus.
For assay [2], the system named is A/FPV/Bratislava/79 (H7N7).
Assay [3] relates to JNK, p38 and ERK.
The test system of assay [4] is poly-ADP-ribose polymerase (PARP).
Assay [5] deals with viral proteins M1, NP, NS1 and PB1.
Assay [6] relates to viral ribonucleoprotein complexes (RNP).
Another assay deals with IP10. To be noted: mouse, in vivo.
Another assay concerns IFN-gamma. To be noted: mouse, in vivo.
The conditions of assay [7]: human, in vivo.
Assay [8] relates to JNK, p38 and ERK. The following applies: cited from earlier work.

As to “lysine-glycine-acetylsalicylate [LG-acetylsalicylate]”, in [1], the “inhibition of virus titers” value was “efficient inhibition of the virus titers of the H5N1 strain by several decimal powers”. For the same compound, the “inhibition of virus multiplication (virus titers versus time)” value in [2] is listed as “equally efficiently inhibits the virus multiplication”. For the same compound, the reduction of replication result in the assay on H7N1 virus (FPV) and with H5N1 virus (MB1) was “more than 99%” throughout. For the same compound, the “virus-induced activation of JNK, p38 and ERK” value in the assay with JNK, p38 and ERK [3] is given as “is not blocked”. In addition, the “band of the cleaved PARP (caspase activation)” value in assay [4] was “efficiently reduced”. For the same compound, the “accumulation of the viral proteins M1, NP, NS1 and PB1” value in assay [5] was “is not inhibited”. Moreover, the “retention of viral RNP complexes” value in [6] is listed as “efficient retention of viral RNP complexes”. In addition, the figures for the “reduction of IP10 m-RNA expression” value in the assay with IP10 (ip) and in the assay on IP10 (iv) were 26% and 62%, respectively. For the same compound, the “reduction of IFN-gamma m-RNA expression” value in the assay on IFN-gamma (ip) is 50%; in the assay with IFN-gamma (iv) it was 68%. In addition, the “improvement of the symptoms, all other patients” value in assay [7] is listed as “improvement of the symptoms occurred on the 3rd day”. The “improvement of the symptoms, first day after the administration” value in [7] is “significant improvement of the symptoms”.

In the case of `CC(=O)Oc1ccccc1C(=O)O` [acetylsalicylic acid, reference compound], the “inhibition of virus titers” value in assay [1] is given as “efficient inhibition of the virus titers of the H5N1 strain by several decimal powers”. For the same compound, the “virus-induced activation of JNK, p38 and ERK” value in the assay on JNK, p38 and ERK [8] is “is not inhibited”.
